The record followed here is ChEMBL document CHEMBL1201862, “PubChem BioAssay data set” (2004).

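Protocol summary: plate cells (96-well), add compound at 5 concentrations, incubate 48 h, interpolate endpoints linearly. GI50 marks 50% less growth.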 Activity calls are given as the source filed them. Rule as the data show it: active = GI50 up to about 1.1 µM and inactive = higher.

Common to all, as to test: NCI tumour cell line growth inhibition, 48 h
Assay [1] relates to A549.
Assay [2] relates to DU-145.
Assay [3] has as its system HCT-15.
The test system of assay [4] is HL-60.
For assay [5], the system named is HOP-92.
In assay [6] the test system is HT-29.
The subject of assay [7] is IGROV-1.
Assay [8] relates to KM12.
The subject of assay [9] is MDA-N.
Assay [10] deals with NCI-H23.
Assay [11] has as its system PC-3.
The subject of assay [12] is SF-539.
Assay [13] deals with SK-OV-3.
The subject of assay [14] is SN12C.
The subject of assay [15] is SNB-75.
Assay [16] relates to SR.
In assay [17] the test system is SW-620.
Assay [18] relates to TK-10.
For assay [19], the system named is UACC-257.
Assay [20] concerns UACC-62.

`CCC1NC(=O)C(NC(=O)c2ncccc2O)C(C)OC(=O)C(c2ccccc2)NC(=O)C2CC(=O)CCN2C(=O)C(Cc2ccccc2)N(C)C(=O)C2CCCN2C1=O` (stereo not given): the GI50 in [1] was > 100 µM (inactive); in assay [2], > 100 µM (inactive); in assay [3], above 100 µM; in assay [4] it was 52.6 µM (inactive); in assay [5], > 100 µM (inactive); in assay [6], > 100 µM (inactive). For the same compound, the GI50 in assay [7], in [8], in assay [9], in assay [10], in assay [11] and in [12] was > 100 µM (inactive) in each case. The GI50 in assay [13] was > 100 µM (inactive); in assay [14], > 100 µM (inactive); in assay [15] it was > 100 µM (inactive); in [16], 37.4 µM (inactive); in assay [17], > 100 µM (inactive); in [18], > 100 µM (inactive). For the same compound, the GI50 in assay [19] and in assay [20] was > 100 µM (inactive) in each case.

As to `N=C1OC(c2c[nH]c3ccc(OCc4ccccc4)cc23)C(O)=C1O` (stereo not given), the GI50 is > 100 µM (inactive) in assay [1]; > 100 µM (inactive) in assay [2]; above 100 µM in assay [3]; 71.1 µM (inactive) in assay [4]; > 100 µM (inactive) in assay [5]; > 100 µM (inactive) in [6]. Further, the GI50 in [7], in assay [8], in assay [9], in [10], in assay [11] and in assay [12] was > 100 µM (inactive) throughout. Also, the GI50 in assay [13] was > 100 µM (inactive); in assay [14] it was > 100 µM (inactive); in assay [15], 29.2 µM (inactive); in assay [16], > 100 µM (inactive); in [17], > 100 µM (inactive); in [18] it was > 100 µM (inactive). The GI50 in [19] and in assay [20] was > 100 µM (inactive) in each case.

`Nc1ccn(CC(O)c2cc3ccccc3[nH]2)c(=O)n1` (stereo not given): the GI50 in assay [1] was > 100 µM (inactive); in [2] it was > 100 µM (inactive); in assay [3], above 100 µM; in [4], > 100 µM (inactive); in [5], > 100 µM (inactive); in [6] it was > 100 µM (inactive). The GI50 in assay [7], in assay [8], in assay [9], in assay [10], in [11] and in assay [12] was > 100 µM (inactive) in each case. For the same compound, the GI50 in [13], in assay [14], in [15], in assay [16], in [17] and in assay [18] was > 100 µM (inactive) throughout. For the same compound, the GI50 in assay [19] and in assay [20] was > 100 µM (inactive) in each case.

Take `COC1CC(OC2C(C)OC(OC3C(C)OC(OC4C(C)OC(O[C@H]5CC[C@@]6(C)C(=CC[C@]7(O)[C@@H]6C[C@@H](OC(=O)/C=C(\C)C(C)C)[C@@]6(C)[C@]7(O)CC[C@@]6(O)C(C)=O)C5)CC4OC)CC3OC)CC2OC)OC(C)C1O` (stereo not given in full): the GI50 is > 12.5 µM (inactive) in [1]; > 12.5 µM (inactive) in assay [2]; above 12.5 µM in assay [3]; 5.11 µM (inactive) in assay [4]; > 12.5 µM (inactive) in [5]; > 12.5 µM (inactive) in assay [6]. The GI50 in assay [7], in assay [8], in assay [9], in [10], in assay [11] and in assay [12] was > 12.5 µM (inactive) throughout. Moreover, the GI50 in assay [13], in assay [14], in assay [15], in [16], in assay [17] and in assay [18] was > 12.5 µM (inactive) throughout. Besides, the GI50 in assay [19] and in [20] was > 12.5 µM (inactive) throughout.
